Experimental data taken from the METLIN SMRT retention time set (Domingo-Almenara et al. 2019).

Assay: gradient 5% acetonitrile 3 min, to 50% in 2 min, to 85% in 15 min, held 3 min, 100 µL/min
Conditions: column: Zorbax Extend-C18 2.1 x 50 mm; eluents: water / acetonitrile, 0.1% formic acid
In short: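 Retention times of pure standards were taken from adduct peaks that were selected by computer and manually inspected. Over 3 months, mixtures of ~100 molecules were run by HPLC–quadrupole time-of-flight mass spectrometry in positive and negative ionization mode. The Zorbax Extend-C18 column (2.1 × 50 mm, 1.8 μm) ran at 100 μL/min in water and acetonitrile, each containing 0.1% formic acid, with 40 μL dead volume and 900 μL dwell volume.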

SMILES | RP-LC retention time [s]
CCc1nc2cc(-c3noc(-c4ccc5c(c4)OCO5)n3)ccc2o1 | 1150
CCCn1c(=O)c(C)nc2cc(-c3noc(C4CC(=O)N(c5ccc(C)cc5)C4)n3)ccc21 (centres undefined) | 927
COc1cc(Cl)cc2c1OC=CC(C(=O)Nc1ccc(N3CCOCC3)cc1)=C2 | 979
CCn1nc(C)c(CCNC(=O)Nc2ccccc2C(=O)OC)c1C | 646
CC(C)n1cc(S(=O)(=O)N2CCN(c3cccc(Cl)c3)CC2)c2cccnc21 | 761
CCCN1C(=O)c2cc(C(=O)NCc3ccc(N(C)C)cc3)nn2CC1(C)C(=O)NC1CCCC1 (centres undefined) | 655
CS(=O)(=O)N(C1CCOCC1)C1CN(C(=O)CCc2c[nH]c3ccccc23)C1 | 678
CCOc1ccccc1-c1csc(NC(=O)c2sc(COc3cc(C)ccc3C)nc2C)n1 | 1030
O=C(C1CCCN(c2cnc3nccnc3c2)C1)N1CCN(c2ccccn2)CC1 (centres undefined) | 568
COC(=O)c1ccc(C(=O)NCC2CCN(c3ncccn3)CC2)cc1 | 635
Cc1ccc(CN2CC(=O)N(c3cccc(C)c3)[C@@H]3CS(=O)(=O)C[C@@H]32)cc1 | 855
Cc1cc(C)cc(NC(=O)N(C)CC2CCOC2)c1 (centres undefined) | 743
CCc1nc2c(c(=O)n1CC(=O)NCCC1=CCCCC1)CN(Cc1ccccc1)CC2 | 696
CC(C)NC(=O)C1CCC(=O)N1C1CCN(C(=O)C2CCCCC2)CC1 (centres undefined) | 591
Clc1ccc(Nc2c(-c3ccccc3Cl)nc3ccc(Cl)cn23)cc1 | 946
CC1(C(=O)NCc2ccc(F)cc2)Cn2cnc(C(=O)NC3CC3)c2C(=O)N1C1CC1 (centres undefined) | 670
CCNC(=O)Nc1ccc2c(c1)CN(S(=O)(=O)c1ccc3c(c1)CCC3)CCO2 | 894
Cn1c(N2CCC(C(=O)N3CCN(c4ccc(Cl)cc4)CC3)CC2)cc(=O)n(C)c1=O | 721
CC1(C(=O)NC2CCCCCCC2)CN(S(C)(=O)=O)CC(=O)N1c1ccccc1Cl (centres undefined) | 924
CC[C@H](C)NC(=O)Cc1nnc(-c2ccc(OC)cc2)o1 | 707
CCc1cc(C(=O)NC2CC2)nc2cc(-c3cccs3)nn12 | 1010
Cc1ccc2[nH]cc(CCN3CC(C(=O)Nc4ccc(Cl)cc4)CC3=O)c2c1 (centres undefined) | 882
COc1cc(OC)cc(-c2nc(-c3nnn(Cc4ccccc4)c3C)no2)c1 | 1060

SMILES | RP-LC retention time [s]
COc1ccc2[nH]c3c(c2c1)CCNC3c1ccc(C)cc1 (centres undefined) | 654
COc1cccc(S(=O)(=O)N2[C@H]3CC[C@@H]2c2cnc(C)nc2C3)c1 | 692
O=C(Cn1c(=O)c2nncn2c2ncccc21)NCc1ccc(Cl)cc1 | 671
O=C(c1ccc(Br)o1)N1CCN(c2ccc(NCc3ccccc3)nn2)CC1 | 668
COc1ccc(Cl)cc1NC(=O)CSc1nc(-c2ccccc2C)ns1 | 1230
O=C(Cc1cccs1)NC1CCCN(c2cc(-c3ccccc3)[nH]n2)C1 (centres undefined) | 758
CCc1ccc(NC(=O)CSc2nnc3c4cc(-c5ccc(OC)cc5)nn4ccn23)cc1 | 946
CCc1ccc(CNC(=O)CC2CCN(C(=O)c3[nH]c(C)c(C)c3C)CC2)cc1 | 898
CC(=O)Nc1ccc(CCc2nc3ccc(C(=O)NCCc4c[nH]c5ccccc45)cc3[nH]2)cc1 | 644
COc1ccc(N2CC(c3noc(-c4ccc(Cl)cc4OC)n3)CC2=O)cc1 (centres undefined) | 971
CCOCCCNC(=O)N1CCC2(CC1)NC(=O)c1ccccc1O2 | 652
CCCCN(CC)c1nc2cc(C(=O)OC)ccc2c(=O)n1-c1ccccc1 | 1250
O=C(NCc1cccnc1)C1CCN(c2nc3ccc(-c4cncnc4)nc3s2)CC1 | 584
Cc1ccc(-c2noc(-c3ccccc3S(=O)(=O)N3CCN(c4ncccn4)CC3)n2)cc1 | 1160
CCn1cc(CC(=O)Nc2ccc(OC)c(OC)c2)c2cccnc21 | 664
CC(CNC(=O)c1cc2sccc2n1C)c1ccccc1 (centres undefined) | 983
Cn1cccc1-c1cc2n(n1)CCCN2C(=O)CCC(=O)NCc1ccc(F)cc1 | 717
COc1ccccc1N1CCN(c2ncc(C(=O)Nc3ccccc3)c(N)n2)CC1 | 742
CN(C)C[C@@H]1CN(S(C)(=O)=O)C[C@H]1NC(=O)CC1=CCCCC1 | 602
COCCCNC(=O)Cn1ccc2c(SCc3ccc(C)cc3)nccc21 | 648
CCOCCCNC(=O)N1CCCCCC1c1cccc(C)c1 (centres undefined) | 954
O=C(c1ccc(F)cc1F)N1CCN(c2cc(-c3cccs3)[nH]n2)CC1 | 784
O=C(Nc1nccs1)c1ccccc1OCc1nc(-c2ccccc2)no1 | 953

SMILES | RP-LC retention time [s]
Cc1nn(C(C)C(=O)NCc2ccco2)c(=O)c2nn(-c3ccccc3)c(C)c12 (centres undefined) | 761
CCC1Oc2ccc(S(=O)(=O)N3CCC(C(=O)Nc4cccc(C)c4C)CC3)cc2NC1=O (centres undefined) | 837
O=C(NCCCN1CCCCC1)c1ccc2c(c1)NC(=O)C1CCCCN21 (centres undefined) | 600
CN(C)c1ccc(C(=O)N2CCCC2c2nc(-c3ccc(F)cc3F)no2)cc1 (centres undefined) | 984
CN(CCNC(=O)c1sc2ncccc2c1-n1cccc1)Cc1ccccc1 | 666
O=C(CSc1ccc(-c2ccco2)nn1)N1CCCCC1 | 690
O=C(c1cc(C2CC2)[nH]n1)N1CCCCC1 | 661
CN(Cc1ccccc1)c1ncc(C(=O)Nc2ccccc2)c(N)n1 | 731
O=C(CSc1nnc(CCc2nc3ccccc3[nH]2)o1)NCCc1ccc(Cl)cc1 | 601
CCOc1ccc(C(=O)N2CCN(c3ccc(-c4nc(CC)cs4)cn3)CC2)cc1 | 987
Cc1sc(-c2nc(-c3cccc(F)c3)no2)cc1S(=O)(=O)N1CCN(c2ccccn2)CC1 | 959
Cc1ccc(-c2ncc(NC(=O)CC(C)C)cn2)cc1 | 961
Cc1noc(-c2cc(=O)n(CC(=O)NCc3ccccc3F)c3ccccc23)n1 | 826
Cc1cc(C)cc(C(=O)N2CCc3[nH]nc(C(=O)N(C)C)c3C2)c1 | 655
CN1C(=O)C(C)(C(=O)Nc2ccccc2)Oc2cccnc21 (centres undefined) | 788
Cc1ccc(-c2ccc(N3CCCC(C(=O)NCc4ccc(Br)cc4)C3)nn2)cc1 (centres undefined) | 806
O=C(CCc1c(-c2ccccc2)nc2ccccn12)NCc1cccc(Cl)c1 | 681
CC1(C(=O)NCc2ccc(F)cc2)CCN(C(=O)Nc2ccc(F)cc2)CC1 | 804
O=C(C1CCN(c2nc3cccnc3s2)CC1)N1CCN(c2ccccn2)CC1 | 590
COCC(C)(O)CNC(=O)c1ccc2nsnc2c1 (centres undefined) | 606
COc1ccc(S(=O)(=O)N2CC3CN(C(=O)C4CCOC4)CC(C2)O3)cc1 (centres undefined) | 659
COc1ccccc1N1CCN(c2ncnc3c2CCC3)CC1 | 645
CC(=O)N1CCc2cc(N3CC(C(=O)NCc4ccc(F)cc4F)CC3=O)ccc21 (centres undefined) | 692

SMILES | RP-LC retention time [s]
CN(Cc1ccccc1)C(=O)Cn1cnc2nc3c(cc2c1=O)CCCC3 | 725
O=C1CC(c2ccco2)Sc2nc3ccccc3n21 (centres undefined) | 796
CC(C)n1cc(S(=O)(=O)N2CCN(c3ccccc3F)CC2)c2cccnc21 | 1100
O=C(NCCc1cccs1)C1CCN(C(=O)c2ncn3c2COC(c2ccc(F)cc2)C3)CC1 (centres undefined) | 774
O=C(Cc1nnc2cc(-c3nc(C4CC4)no3)ccn12)NC1CCCCCC1 | 741
Cc1cc(Cl)ccc1S(=O)(=O)N1CCC(OC2CCN(c3ccccc3)C2=O)CC1 (centres undefined) | 1080
O=C(CCCn1c(=O)c2cccn2c2ccc(F)cc21)NCCCN1CCOCC1 | 603
Cc1ccc(-c2noc(Cn3ccn(-c4c(C)cccc4C)c(=O)c3=O)n2)cc1C | 1000
COc1ccc2c(C)c(CCC(=O)N[C@H](C(=O)O)c3ccccc3)c(=O)oc2c1OC | 719
COc1ccc(NC(=O)CSc2cc(N3CCN(c4ccccc4OC)CC3)ncn2)cc1Cl | 981
O=C(NC1CCCC1)c1nc(Cn2c(=O)oc3ccc(Cl)cc32)no1 | 931
CCc1ccc(NC(=O)Cn2c(=O)cc(-c3nc(C4CC4)no3)c3ccccc32)cc1 | 1050
Cc1ccc(S(=O)(=O)Nc2ccc3c(c2)CCC(=O)N3CC(C)C)c(C)c1 | 945
CCCCCNC(=O)C1CCCN(S(=O)(=O)c2cc(Cl)ccc2OC)C1 (centres undefined) | 960
CCOC(=O)c1ccc(NC(=O)c2c(C)oc3nc(C)nc(N4CCCC4)c23)cc1 | 848
O=c1ccc(-c2ccc3c(c2)OCO3)nn1Cc1nc(-c2cccc(Cl)c2)no1 | 1040
O=C1COc2cc(S(=O)(=O)N3CCCC3C(=O)NC3CCCCC3)c(Cl)cc2N1 (centres undefined) | 779
Cc1ccc(C(=O)NC2CCN(c3cc(-c4cccs4)[nH]n3)C2)c(C)c1 (centres undefined) | 742
O=C(Nc1cccc2ccccc12)c1ccccc1 | 923
CC(C)Sc1nccn2nc(-c3cccs3)cc12 | 1280
